Article PMC11092803, “Heme allocation in eukaryotic cells relies on mitochondrial heme export through FLVCR1b to cytosolic GAPDH” (Research Square, 2024)

Target: T1, IDO1 (Homo sapiens, UniProt P14902)
T1 construct: full-length with FLAG tag, expressed in HEK293T cells; immunoprecipitated for 14C-heme count
Assay: L-kynurenine in culture medium, p-dimethylaminobenzaldehyde colorimetry at […] nm
Type: cell-based
Details: intact HEK293T cells expressing IDO1; L-Trp 2 mM, with or without δ-ALA and ferric citrate, 5 h

T1 sequence (P14902 whole entry): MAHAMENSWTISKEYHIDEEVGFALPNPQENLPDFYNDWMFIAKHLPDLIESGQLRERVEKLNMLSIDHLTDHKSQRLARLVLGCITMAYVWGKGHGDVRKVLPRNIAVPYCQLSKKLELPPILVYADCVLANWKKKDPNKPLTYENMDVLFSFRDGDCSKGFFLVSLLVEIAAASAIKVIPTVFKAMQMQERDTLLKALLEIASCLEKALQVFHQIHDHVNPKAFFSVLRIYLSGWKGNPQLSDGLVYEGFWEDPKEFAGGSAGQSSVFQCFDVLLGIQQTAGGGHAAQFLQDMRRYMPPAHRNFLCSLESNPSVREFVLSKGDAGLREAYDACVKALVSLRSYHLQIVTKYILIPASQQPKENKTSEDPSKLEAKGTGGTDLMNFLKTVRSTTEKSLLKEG

N[C@@H](Cc1c[nH]c2ccccc12)C(=O)O [L-Trp]
L-kynurenine in culture medium, p-dimethylaminobenzaldehyde colorimetry at 492 n: IDO1 activity was determined by colorimetric measure of the accumulated L-Kynurenine product
